Source: patent US10266545B2, “Coumarin derivative as antiviral agent, pharmaceutical composition thereof, its preparation and use” (I-NOVA MEDICINSKA ISTRAZIVANJA D.O.O., priority 2016, dated 2019)

Target: T1, rRT (exogenous recombinant RT) (Human immunodeficiency virus type 1 group M subtype B, UniProt P03366)
T1 construct: recombinant RT was added with a known activity and concentration; purchased Cavidi (Sweden) 52010
Test: Direct effect on exogenous recombinant RT (rRT), HS-Lenti RT activity kit
Format: biochemical, HIV-1
Details: for inhibition at 10 µM: 0.01 mM
Method: The RT test was performed by using HS-Lenti RT activity kit test provided by Cavidi (Sweden) for direct study of inhibitory effect of rRT. HS-Lenti RT activity assay provides an opportunity for direct determination of the effects of the test compound 1 and the control compound 2 on the activity of rRT, of known concentrations. […] Such opportunity is provided by the test kit manufacturer, see literature reference 10: • 10) X. Shao, D. Ekstrand, R. Bhikhabhai, C. Kallander, J. Gronowitz: A non-radioactive microtitre plate reverse transcriptase (RT) assay, based on immobilized template, for screening of RT activity inhibitors and evaluation of the mode of action, Antiviral Chem. Chemother. 8 (1997) 149-159.
For the control, commonly used substance with proven antiviral activity was employed; in our case, we used Kivexa, which contains 600 mg Abacavir and 300 mg of Lamivudine, which is applied in clinical practice as nucleoside inhibitor of RT. In the presence of RT inhibition in the test, it is concluded that not only the replication of the virus is inhibited, but also probably the target of the inhibitory effect is RT itself. To confirm this conclusion, it is necessary that percentage (%) of inhibition of the RT coincides with the % inhibition in the microtiter MTT assay. […] After incubation, we determined whether the activity of the enzyme shall be amended (inhibited) by action of the compounds 1 or 2. […]
The procedure was as follows: In wells of a company plate coated with a matrix poly-rA, are added reaction mixture to RT, the primer containing oligo-dT, Brd UTP as a source of dNTP and prepared at buffer of the commercial test 10× more concentrated (as reaction mixture was in a volume of 100 μl) of the test substance dilutions. […] Manifestation of the enzyme reaction was carried out using a suitable substrate for alkaline phosphatase for 30 minutes and then the absorbance was detected at a wavelength of 405 nm. […]

| Compound | inhibition at 10 µM | inhibition at 5 µM (0.005 mM) |
| --- | --- | --- |
| O=c1oc2cc(O)c(O)cc2c(O)c1-c1coc2c1c(=O)oc1cc(O)c(O)cc12 [Compound 2, 7,8-dihydroxy-3-(4,6,7-trihydroxy-2-oxo-2H-chromen-3-yl)-4H-furo[3,2-c]chromen-4-one, reference compound] | 0% | – |
| O=c1oc2cc(O)cc(O)c2c(O)c1-c1coc2c1c(=O)oc1cc(O)cc(O)c12 [Compound 1, 7,9-dihydroxy-3-(4,5,7-trihydroxy-2-oxo-2H-chromene-3-yl)-4H-furo[3,2-c]chromen-4-one] | 72.8% | 0% |
